Data: patent publication US9346813B2, “Substituted pyrrolo[2,3-d]pyrimindines as CDK9 kinase inhibitors” (AbbVie Inc., priority 2014, dated 2016)

Experiments:
A431 cells = assay: Cell viability assay in A431 cells (Cell TiterGlo); format: cell-based; details: Homo sapiens, A-431, 24 hours at 37° C.
Procedure: Cell viability assays were performed using A431 or H929 cells. A431 cells were seeded in 96-well plates at 10,000 cells/well, and after overnight incubation, treated with compounds at 2-times the final concentration to result in a dose response of 3-fold dilutions from 10 μM to 0.0005 μM (50 μL/well, 0.1% final DMSO concentration). H929 cells were seeded in 96-well plates at 10,000 cells/well and treated immediately with compounds as described above. After 24 hours at 37° C., cell viability was measured using Cell TiterGlo reagent (Promega) with a luminescence reader. Alternately, cell viability assays were performed in 384-well format. A431 cells were seeded in 384-well plates at 2500 cells/well and, after overnight incubation, treated with compounds in a dose response of 3-fold dilutions from 10 μM to 0.0005 μM (25 nL/well, 0.1% final DMSO concentration). For the H929 viability assay, 25 nL/well of the compounds was dispensed into 384-well plates in a dose response as described above and cells were immediately seeded in 384-well plates at 2500 cells/well. After 24 hours at 37° C., cell viability was measured using Cell TiterGlo reagent (Promega) with a luminescence reader.

CDK9/Cyclin T1 = molecular target: T1, CDK9/Cyclin T1 (Homo sapiens, UniProt P50750); assay: CDK9 enzyme protocol (LANCE ULight TR-FRET kinase assay); format: biochemical; details: 4 nM CDK9/Cyclin T1, 1000 μM ATP, 100 nM U-light MBP peptide, 30 minutes
T1 construct: purchased Carna Biosciences 04-110
Procedure, shortened: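 Human CDK9/Cyclin T1 (4 nM) phosphorylated 100 nM ULight-MBP peptide at 1000 μM ATP for 30 min in HEPES/MgCl2/Triton buffer. The reaction was stopped with 20 mM EDTA plus 0.5 nM Eu anti-phospho-MBP antibody and equilibrated 1 h. Read-out was TR-FRET (ex 320, em 615/665 nm).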

H929 cells = assay: Cell viability assay in H929 cells (Cell TiterGlo); format: cell-based; details: Homo sapiens, NCI-H929, 24 hours at 37° C.
Procedure, shortened: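 Cells seeded at 10,000 (96-well) or 2500 (384-well) cells/well; A431 dosed after overnight attachment, H929 dosed at seeding. 3-fold dilutions from 10 μM to 0.0005 μM, 0.1% final DMSO. Viability read by Cell TiterGlo luminescence after 24 hours at 37° C.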

T1 sequence (P50750 whole entry): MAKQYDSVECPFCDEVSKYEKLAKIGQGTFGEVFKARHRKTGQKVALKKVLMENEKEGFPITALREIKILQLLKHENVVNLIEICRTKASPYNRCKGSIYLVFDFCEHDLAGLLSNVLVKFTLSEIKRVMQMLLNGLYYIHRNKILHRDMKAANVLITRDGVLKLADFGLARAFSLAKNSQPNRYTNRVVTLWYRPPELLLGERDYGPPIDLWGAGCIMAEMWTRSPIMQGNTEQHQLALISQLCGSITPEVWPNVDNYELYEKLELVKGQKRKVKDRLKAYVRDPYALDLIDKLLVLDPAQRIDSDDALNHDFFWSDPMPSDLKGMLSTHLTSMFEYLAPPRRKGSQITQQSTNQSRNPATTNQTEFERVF
T1 sequence (O60563 whole entry partner): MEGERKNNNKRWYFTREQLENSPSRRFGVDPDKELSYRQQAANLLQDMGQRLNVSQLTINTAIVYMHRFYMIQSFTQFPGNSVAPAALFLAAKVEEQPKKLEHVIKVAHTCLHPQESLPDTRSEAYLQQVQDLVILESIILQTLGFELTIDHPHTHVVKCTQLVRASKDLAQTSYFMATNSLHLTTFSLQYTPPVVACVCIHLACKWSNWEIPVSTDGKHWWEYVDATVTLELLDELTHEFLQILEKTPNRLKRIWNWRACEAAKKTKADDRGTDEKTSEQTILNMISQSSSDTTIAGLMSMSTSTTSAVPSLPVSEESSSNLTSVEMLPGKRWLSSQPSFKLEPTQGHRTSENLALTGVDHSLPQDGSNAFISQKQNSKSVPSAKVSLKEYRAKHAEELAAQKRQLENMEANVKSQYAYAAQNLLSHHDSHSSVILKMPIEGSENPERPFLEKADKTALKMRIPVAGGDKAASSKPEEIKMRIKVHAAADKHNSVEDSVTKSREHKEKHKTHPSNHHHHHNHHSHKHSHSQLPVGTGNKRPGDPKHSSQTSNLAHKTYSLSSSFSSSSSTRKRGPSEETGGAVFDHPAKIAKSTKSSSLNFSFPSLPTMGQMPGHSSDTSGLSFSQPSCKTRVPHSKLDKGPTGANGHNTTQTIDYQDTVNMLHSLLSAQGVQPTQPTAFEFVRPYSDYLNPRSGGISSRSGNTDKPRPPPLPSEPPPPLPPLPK

Structure (SMILES) | EC50 (A431 cells) [nM] | IC50 (CDK9/Cyclin T1) [nM] | EC50 (H929 cells) [nM]
COc1ccc(F)cc1-c1ncnc2[nH]c(C3CCNCC3)cc12 [Example 1, 4-(5-fluoro-2-methoxyphenyl)-6-(piperidin-4-yl)-7H-pyrrolo[2,3-d]pyrimidine] | 100 | 52 | –
COc1ccc(F)cc1-c1ncnc2[nH]c(C3=CCNCC3)cc12 [Example 3, 4-(5-fluoro-2-methoxyphenyl)-6-(1,2,3,6-tetrahydropyridin-4-yl)-7H-pyrrolo[2,3-d]pyrimidine] | 32 | – | 200
COc1ccc(F)cc1-c1ncnc2[nH]c(C3=CCN(C(=O)CO)CC3)cc12 [Example 7, 1-{4-[4-(5-fluoro-2-methoxyphenyl)-7H-pyrrolo[2,3-d]pyrimidin-6-yl]-3,6-dihydropyridin-1(2H)-yl}-2-hydroxyethanone] | 150 | 37 | 180
Fc1ccc(NCc2ccccc2)cc1-c1ncnc2[nH]c(C3CCNCC3)cc12 [Example 9, N-benzyl-4-fluoro-3-[6-(piperidin-4-yl)-7H-pyrrolo[2,3-d]pyrimidin-4-yl]aniline] | 120 | 72 | –
CNC(=O)N1CC=C(c2cc3c(-c4cc(F)ccc4OC)ncnc3[nH]2)CC1 [Example 17, 4-[4-(5-fluoro-2-methoxyphenyl)-7H-pyrrolo[2,3-d]pyrimidin-6-yl]-N-methyl-3,6-dihydropyridine-1(2H)-carboxamide] | 260 | 120 | 200
COc1ccc(F)cc1-c1ncnc2[nH]c(C3=CCN(Cc4ccc(C(=O)O)cc4)CC3)cc12 [Example 72, 4-({4-[4-(5-fluoro-2-methoxyphenyl)-7H-pyrrolo[2,3-d]pyrimidin-6-yl]-3,6-dihydropyridin-1(2H)-yl}methyl)benzoic acid] | 5200 | 110 | 2400
COc1ccc(F)cc1-c1ncnc2[nH]c(C3=CCN(CC(=O)N(C)C)CC3)cc12 [Example 80, 2-{4-[4-(5-fluoro-2-methoxyphenyl)-7H-pyrrolo[2,3-d]pyrimidin-6-yl]-3,6-dihydropyridin-1(2H)-yl}-N,N-dimethylacetamide] | 130 | – | 120
COc1ccc(F)cc1-c1ncnc2[nH]c(C3=CCN(Cc4ccc(NS(C)(=O)=O)cc4)CC3)cc12 [Example 81, N-[4-({4-[4-(5-fluoro-2-methoxyphenyl)-7H-pyrrolo[2,3-d]pyrimidin-6-yl]-3,6-dihydropyridin-1(2H)-yl}methyl)phenyl]methanesulfonamide] | 110 | 75 | 100
COc1ccc(F)cc1-c1ncnc2[nH]c(C3=CCN(C4CCC(C(=O)O)CC4)CC3)cc12 (stereo not drawn) [Example 86, 4-{4-[4-(5-fluoro-2-methoxyphenyl)-7H-pyrrolo[2,3-d]pyrimidin-6-yl]-3,6-dihydropyridin-1(2H)-yl}cyclohexanecarboxylic acid] | – | 400 | 3600
COc1ccc(F)cc1-c1ncnc2[nH]c(C3=CCN([C@H]4CC[C@H](CC(=O)O)CC4)CC3)cc12 [Example 87, (trans-4-{4-[4-(5-fluoro-2-methoxyphenyl)-7H-pyrrolo[2,3-d]pyrimidin-6-yl]-3,6-dihydropyridin-1(2H)-yl}cyclohexyl)acetic acid] | – | 300 | 4100
